Values joined by “and” are separate entries in the source; they are usually repeats but may differ in a detail not shown here. Equal entries are not always repeated.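 Assay format: 96-well plates, 48-hour exposure. Here, GI50 denotes the concentration required for 50% inhibition of growth. TGI marks complete inhibition of growth.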
Key:
Assay in all cases: DTP human tumour cell line panel, 48 h
[1] = tested on: HOP-92 NSCLC
[2] = tested on: HOP-62 NSCLC
[3] = tested on: OVCAR-3 ovarian
[4] = tested on: OVCAR-8 ovarian
[5] = tested on: DU-145 prostate
[6] = tested on: SF-539 CNS
[7] = tested on: NCI-H460 lung
[8] = tested on: CCRF-CEM leukemia
[9] = tested on: OVCAR-4 ovarian
[10] = tested on: SK-MEL-2 melanoma

Row | Compound | GI50 [1] [µM] | TGI [1] | GI50 [2] [µM] | TGI [2] | GI50 [3] [µM] | TGI [3] | GI50 [4] [µM] | TGI [4] | GI50 [5] [µM] | TGI [5] [µM] | GI50 [6] [µM] | TGI [6] | GI50 [7] [µM] | TGI [7] | GI50 [8] | TGI [8] | GI50 [9] [µM] | TGI [9] | GI50 [10] [µM] | TGI [10]
1 | Cc1cc(NC(=O)c2ccc(NS(=O)(=O)CCO)cc2N2CCC3(CC2)CC3)nc(N2CCC(F)(F)CC2)n1 | 14.5 | 29.6 µM | 13.7 | 30.4 µM | 0.0365 | 2.49 µM | 0.114 | 24.4 µM | 0.0531 | 15.8 | 0.0776 | 16 µM | 12.6 | 26.8 µM | 10 µM | > 66 µM | 14.2 | 27.7 µM | 15.8 | 31.1 µM
2 | CS(=O)(=O)c1ccc(N/N=C/c2c(-c3ccc(S(C)(=O)=O)cc3)[nH]c3ccc(F)cc23)cc1 | 2.18 | > 50 µM | 2.17 | > 50 µM | 2.23 | > 50 µM | 1.24 | > 50 µM | 2.75 | > 50 | 0.676 | 2.11 µM | 1.77 | > 50 µM | 1.2 µM | > 50 µM | 1.97 | > 50 µM | 1.74 | 4.73 µM
3 | Cc1cc(Cl)ccc1Nc1sc(C(=O)c2cc3cc(Cl)ccc3o2)c(N)c1C#N |  | > 100 µM |  | > 37.6 µM |  | > 55.3 µM |  | > 87.2 µM |  | > 100 |  | > 66 µM |  | > 64.3 µM |  | > 52.8 µM |  | 25.1 µM |  | > 100 µM
4 | C#C[C@@]1(O)[C@@H](CO)O[C@@H](n2cc(Cl)c3c(N)ncnc32)[C@@H]1O | 0.454 | 3.53 µM | 0.254 | 1.97 µM | 0.233 | 1.79 µM | 0.0336 | 1.48 µM | 0.131 | > 52 | 0.324 | 1.45 µM | < 0.0215 | 0.412 µM | 0.248 µM | > 100 µM | 0.323 | 3.34 µM | 0.146 | 0.481 µM
5 | CCN(Cc1ccc(F)cc1)c1ccc(CO)c(Cl)c1 | 0.956 | 13.1 µM | 0.576 | 25.1 µM | 0.704 | 6.18 µM | 9.24 | 43.5 µM | 15.2 | > 49.2 | 15.1 | 35.1 µM | 0.213 | 11.7 µM | 15.9 µM | 62.6 µM | 0.298 | 7.48 µM | 2.03 | 13.9 µM
6 | O=S(=O)(/C=C/C=C/S(=O)(=O)c1ccccc1)c1ccccc1 |  | 2.77 µM and 3.35 µM | 8.81 | 20.9 µM | 1.46 | 1.82 µM and 2.9 µM | 2.61 | 2.12 µM and 5.95 µM |  | 27.7 | 2.14 | 4.43 µM | 4.01 | 16.9 µM |  | 0.691 µM and 0.424 µM |  | 3.28 µM and 3.18 µM | 1.4 | 5.68 µM and 3.47 µM
7 | Nc1ccccc1NC(=O)c1ccc(CSc2nc(N3CCOCC3)c3cccn3n2)cc1 | 0.15 | 0.991 µM | 1.49 | 45.9 µM | 1.05 | 6.73 µM | 0.509 | > 100 µM | 1.63 | 37.7 | 0.773 | > 100 µM | 0.524 | > 100 µM | 0.246 µM | > 100 µM | 2.47 | > 100 µM | 0.314 | 1.88 µM
8 | CCC1CCc2nc3sc(C(=O)Nc4ccccc4F)c(N)c3cc2C1 (centres undefined) | 4 | > 100 µM | > 100 | > 100 µM | 0.454 | 8.98 µM | > 100 | > 100 µM | 2.82 | > 100 |  | > 100 µM | 2.71 | > 100 µM | 1.72 µM | > 100 µM | > 100 | > 100 µM | 10.5 | > 100 µM
9 | CCOC(=O)[C@H](CSSc1ncnc2cc[nH]c12)NC(=O)[C@@H](C)c1ccc2cc(OC)ccc2c1 | 0.39 | 41 µM | 0.408 | > 100 µM | 0.125 | > 100 µM | 1.82 | > 100 µM | 0.213 | > 100 | 0.478 | > 100 µM | 3.04 | > 100 µM | 0.532 µM | > 100 µM | 2.03 | > 100 µM | 0.791 | > 29 µM
10 | CC(=O)O[C@H](C[C@H](C(C)C)N(C)C(=O)[C@@H](NC(=O)[C@H]1CCCCN1C)C(C)C)c1nc(C(=O)N[C@@H](Cc2ccccc2)C[C@H](C)C(=O)O)c(C)s1 | > 25 | > 25 µM | < 0.0025 | > 25 µM | < 0.0025 | > 25 µM | < 0.0025 | > 25 µM | < 0.0025 | > 25 | < 0.0025 | 0.0187 µM | < 0.0025 | > 25 µM | < 0.0025 µM | > 25 µM | > 25 | > 25 µM | < 0.0025 | > 25 µM
11 | NC1=NC(=O)N2CC12 (centres undefined) | 70.8 | > 100 µM and 173 µM | 570 | > 100 µM and 1250 µM | 171 | > 100 µM and 519 µM | 141 | > 100 µM and 5000 µM | 240 | 851 |  | > 100 µM and 206 µM | 182 | > 100 µM and 866 µM | 17.3 µM and 14.3 µM | > 100 µM and 58.9 µM and 89.8 µM | 198 | > 100 µM and 779 µM | 63.3 | > 100 µM and 329 µM
12 | CS(=O)(=O)CCNCc1ccc(-c2ccc3ncnc(Nc4ccc(OCc5ccccc5)c(C(F)(F)F)c4)c3c2)o1 | 4.9 | 20.8 µM | 6.16 | 15.8 µM | 7.37 | 19.2 µM | 8.39 | > 25 µM | 10.3 | > 25 | 4.69 | 9.88 µM | 4.8 | 9.34 µM | 7.29 µM | > 23.1 µM | 10.3 | > 25 µM | 5.68 | 11.4 µM
